Several values for one entry are separate records, joined by “and”; a condition that tells them apart may be missing. Equal entries are not always repeated.
What was measured:
FTH1 = FTH1 gene expression in human skeletal muscle cells (HSkMC) by qRT-PCR; format: cell-based; conditions: for FTH1 Fold Change at 0.625 μM / FTH1 Fold Change at 1.25 μM / FTH1 Fold Change at 2.5 μM / FTH1 Fold Change at 5 μM / FTH1 Fold Change at 10 μM: average of triplicate (SD ≤ 0.3); for FTH1 Fold Change, Average / FTH1 Fold Change (individual runs): SPH 100 μM or synthetic oligopeptide 10 μM, about 12 hours; for FTH1 Fold Change (individual runs): triplicate runs
Protocol: A cell line derived from human skeletal muscle was selected to assess the effect of SPH and oligopeptides on gene expression. HSkMC (PCS-950-010) obtained from ATCC (Manassas, VA) were propagated in Mesenchymal Stem Cell Basal Medium (ATCC) reduced serum medium supplemented with Primary Skeletal Cell Muscle Growth Kit (ATCC) that contains L-Glutamine (10 mM), Dexamethasone ([…]), rh epidermal growth factor (5 ng/ml), rh FGF-b (5 ng/ml), rh Insulin (25 μg/mL), and fetal bovine serum (4%), on 100 mm cell culture dishes. For this assay, the HSkMC cells were seeded in 24 well plates at a cell density of 1×10^4 cells/cm^2 and maintained at 37° C. in a humidified 5% CO2 atmosphere. […]
Total RNA was extracted using the UPzol reagent for the cell pellets, followed by a DNAse treatment (DNAse TURBO), using the manufacturer's protocols. Complementary DNA (cDNA) was synthesized with the High Capacity cDNA Reverse Transcription Kit (Applied Biosystems) using random hexamers. Gene expression levels were measured by qRT-PCR.
1 μl of cDNA corresponding to 50 ng of reverse transcribed RNA was amplified by Qpcr (QuantStudio™ 6 Flex Real-Time PCR System), using the TaqMan™ Universal PCR Master Mix (Catalog No. 4304437) and a TaqMan™ assay (Roche Molecular Systems, Inc., Pleasanton, CA).
FTH1 gene expression was estimated relative to expression of the housekeeping gene, beta-actin (ACTB), following the standard formula: […]
2-ΔCt. TaqMan™ probe IDs used were: (i) FTH1, Hs01694011_s1; and (ii) ACTB, Hs01060665_g1. All experiments were run in triplicate.

[1] = test system: Immortalized human astrocytes (P10251-IM); test: Protection of human astrocytes from hemin-induced injury (LDH release assay); format: cell-based; conditions: 24 hr pre-treatment: SPH 160 μM, oligopeptide 10 μM, collagen control 160 μM; then 30 μM hemin 6 hrs; scaled to 0.1% Triton X-100 lysis
Protocol: Immortalized human astrocytes (P10251-IM) were obtained from Innoprot, Spain and prepared under conditions recommended by the supplier. At 90% confluency, the P10251-IM cells were rinsed with 8 ml of DPBS and 2 ml of the T/E Solution (prepared as per Innoprot procedure), then added into an […] and gently rocked so that the P10251-IM cells would be completely covered. The flask was subsequently incubated at 37° C. for 2 minutes. Then 5 ml of fetal bovine serum (FBS) and the T/E solution from the flask were added into a 50 ml conical centrifuge tube. The flask was incubated for an additional 2 minutes, and the P10251-IM cells dislodged from the surface by gentle tapping. The P10251-IM cells were then transferred to the 50 ml conical centrifuge tube with 5 ml of TNS solution. The tube was centrifuged at 1000 rpm for 5 minutes. Then the P10251-IM cells were resuspended in the culture medium, counted, and plated in a poly-L-lysine-coated culture plate at 1×10^4 cell density. Cells were tested after they were incubated for 21 days in vitro.
Confluent P10251-IM cell cultures were washed and then pre-treated with medium alone, or medium supplemented with SPH (160 μM) or an oligopeptide (10 μM) for 24 hr at 37° C. Commercial collagen peptide (Vital Protein) at 160 μM concentration and sterile water were used as negative controls. The P10251-IM cells were subsequently treated with 30 μM hemin in serum-free medium consisting of MEM with 10 mM glucose (MEM10) for 6 hrs.
P10251-IM astrocyte cultures that were […] with 30 μM hemin sustained widespread cell injury. Cell viability was quantified using the lactate dehydrogenase (LDH) release assay as previously described (Chen and Regan, Curr Neurovasc Res, 2:189-196, 2005). Briefly, quantification of the protective effects of SPH and oligopeptides were assessed by determining the mean percentage LDH released, scaled to the complete lysis control culture which was treated with 0.1% Triton X-100 (considered to release 100% of culture LDH).

Substance | FTH1 Fold Change at 0.625 μM (FTH1) [fold] | FTH1 Fold Change at 1.25 μM (FTH1) [fold] | FTH1 Fold Change at 2.5 μM (FTH1) [fold] | FTH1 Fold Change at 5 μM (FTH1) [fold] | FTH1 Fold Change at 10 μM (FTH1) [fold] | FTH1 Fold Change, Average (FTH1) [fold] | FTH1 Fold Change (individual runs) (FTH1) | % LDH Release (individual runs) [1] | % LDH Release, Average [1] [%]
REESGEP [FT-002] | 1.0 | 1.0 | 1.1 | 1.4 | 2.2 | 2.2 | 2.1 fold and 2.0 fold and 2.5 fold | – | –
KEEDEESGE [FT-003] | – | – | – | – | – | 1.1 | 1.1 fold and 1.0 fold and 1.3 fold | – | –
LDEESGEP [FT-005] | – | – | – | – | – | 1.8 | 1.7 fold and 1.8 fold (2×) | – | –
REESGE [FT-001] | – | – | – | – | – | 1.7 | 1.6 fold and 1.8 fold (2×) | – | –
Triton X-100 [0.1% Triton X-100, reference compound] | – | – | – | – | – | – | – | 100% (2×) and 99% | 100
KPREESGE [FT-004] | 1.1 | 1.1 | 1.1 | 1.3 | 2.1 | 2.1 | 2.1 fold and 2.2 fold and 1.9 fold | – | –

Source: patent publication US20250101061A1, “UPREGULATION OF FERRITIN HEAVY CHAIN 1 EXPRESSION” (HBC Immunology Inc., priority 2022, published 2025)
